The values that follow come from patent publication US8017350B2, “Glimepiride- and insulin-induced glycosylphosphatidylinositol-specific phospholipase C regulation” (Sanofi-Aventis Deutschland GmbH, priority 2004, dated 2011).

Experiment [1] deals with T1, Lipoprotein lipase (LPL) from bovine milk (Bos taurus, UniProt P11151).
T1 construct: purchased SigmalAldrich (Deisenhofen, Germany); host or cells: bovine milk
Put plainly: lipoprotein lipase assay (radiolabeled triolein emulsion). Particulars: 50 μM. The experiment is classed as biochemical. As to the method: Hormone-sensitive lipase (HSL) and lipoprotein lipase (LPL) were measured using a radiolabeled triolein droplet emulsion as described in “Vertesy et al., (2002) Journal Antibiotics 55:480-494”. Pancreatic lipase (PL) was determined by incubation of 0.25 mmol tributyrin in 2 ml of 5 mM Tris/HCl (pH 6.5), 6 mM sodium taurodeoxycholate, 150 mM NaCl, 1 mM CaCl2 with porcine PL and colipase in the same buffer using a recording pH stat (stirring at 1000 rpm at 25° C.) with the pH adjusted to 6.5. PC-PLC was assayed by incubation of 0.2 ml of 10 mM dipalmitoyllecithin, 0.1 ml of 10 mM SDC and 0.1 ml of 0.03 M CaCl2 with bacterial PC-PLC (in 50 mM Tris/HCl, pH 7.5, 0.1% BSA) for 10 min at 37° C. The reaction was terminated by addition of 0.1 ml of 50% TCA and subsequently of 2.5 ml of […]. After centrifugation (1500×g, 15 min), 0.2-ml portions of the upper methanol/water phase (˜1.33 ml) were removed, supplemented with 0.5 ml of 60% HClO4, then heated at 170° C. for 1 h and finally analyzed for inorganic phosphate. Mammalian PI-PLC was measured by incubation of 0.1 ml of 10 mM PI, 0.1 ml of 0.8% sodium deoxycholate, 0.1% BSA, 0.2 ml of 100 mM sodium borate (pH 7.5) and rat liver PI-PLC for 20 min at 37° C. The reaction was terminated and further processed as described for the PC-PLC. […] Radioactive phosphatidic acid was detected by phosphorimaging. […]

Experiment [2] deals with GPI-anchored and acylated signaling proteins (pp59Lyn, Gce1, 5'-Nuc, aP) in DIGs of rat adipocytes. Put plainly: Redistribution of pp59Lyn, Gce1, 5'-Nuc and aP from hcDIGs to lcDIGs in rat adipocytes. The experiment is classed as cell-based. Particulars: GPI-2350 50 μM; Tab. 2.

T1 sequence (P11151 29-478): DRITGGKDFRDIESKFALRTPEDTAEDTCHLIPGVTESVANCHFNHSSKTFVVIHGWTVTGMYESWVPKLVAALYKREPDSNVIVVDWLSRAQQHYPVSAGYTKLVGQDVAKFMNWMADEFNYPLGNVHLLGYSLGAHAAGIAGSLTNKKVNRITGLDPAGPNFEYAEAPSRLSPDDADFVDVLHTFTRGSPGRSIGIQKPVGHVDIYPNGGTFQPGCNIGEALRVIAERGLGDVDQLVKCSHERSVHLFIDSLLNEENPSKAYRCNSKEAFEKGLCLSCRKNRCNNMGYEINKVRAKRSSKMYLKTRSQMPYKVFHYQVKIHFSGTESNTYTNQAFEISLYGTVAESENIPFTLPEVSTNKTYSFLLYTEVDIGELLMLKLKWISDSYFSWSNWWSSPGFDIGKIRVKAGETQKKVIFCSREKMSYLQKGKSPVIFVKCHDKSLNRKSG

For `CCCCCCCCCCCCP1(=O)O[C@@H]2[C@H](O)[C@@H](O)[C@H](O)[C@@H](O)[C@@H]2O1` (some centres unmarked) [GPI-2350, myo-inositol-1,2-cyclo-dodecylphosphonic acid], the “effect on LPL” value in experiment [1] was “not significantly affected”. The “effect on glimepiride-induced redistribution of 5'-Nuc, Gce1 and aP” value in experiment [2] is listed as “completely eliminated”.
